Reference: ChEMBL document CHEMBL6092137, “Synergistic immune augmentation enabled by covalently conjugating TLR4 and NOD2 agonists” (Eur J Med Chem, 2024)
Active and inactive are the calls of the source. The rule behind the calls is not given here.

Key:
[1] = system: Mus musculus; assay: Induction of innate immunity in BALB/c mouse assessed as fold increase in IL-6 level in serum at 22.53 ug, ip measured after 2 hrs by ELISA; type: functional; conditions: dose 22.53 µg
[2] = Immunostimulatory activity in C57BL/6 mouse BMDC cells assessed as TLR4 inhibitor mediated reduction in IL-6 level at 9.3 uM incubated for 20 hrs in presence of TAK242 by ELISA; type: functional; set-up: scale not given: the % may be the effect or the level left
[3] = Immunostimulatory activity in C57BL/6 mouse BMDC cells assessed as TLR4 inhibitor mediated reduction in IL-6 level at 9.3 uM incubated for 20 hrs in presence of GSK717 by ELISA; type: functional; set-up: scale not given: the % may be the effect or the level left
[4] = Immunostimulatory activity in C57BL/6 mouse BMDC cells assessed as TLR4/NOD2 inhibitor mediated reduction in IL-6 level at 9.3 uM incubated for 20 hrs in presence of TAK242/ GSK717 by ELISA; type: functional; set-up: scale not given: the % may be the effect or the level left
[5] = system: THP-1; assay: Cytotoxicity against human THP-1 cells assessed as reduction in cell viability by MTT assay; type: toxicity, cell-based
[6] = Induction of mouse RAW264.7 cell maturation assessed as fold increase in CD86 positive cells incubated for 18 hrs by staining based flow cytometric analysis relative to combination of RC529 and Muramyl dipeptide; type: functional
[7] = Induction of mouse RAW264.7 cell maturation assessed as fold increase in CD80 positive cells incubated for 18 hrs by staining based flow cytometric analysis relative to combination of RC529 and Muramyl dipeptide; type: functional
[8] = Induction of mouse RAW264.7 cell maturation assessed as change in CD80 positive cells incubated for 18 hrs by staining based flow cytometric analysis relative to control; type: functional
[9] = Induction of mouse RAW264.7 cell maturation assessed as change in CD86 positive cells incubated for 18 hrs by staining based flow cytometric analysis relative to control; type: functional
[10] = Induction of mouse RAW264.7 cell maturation assessed as fold increase in CD80 and CD86 positive cells incubated for 18 hrs by staining based flow cytometric analysis relative to combination of RC529 and Muramyl dipeptide; type: functional
[11] = Induction of mouse BMDC cell maturation assessed as fold increase in CD80 positive cells incubated for 18 hrs by staining based flow cytometric analysis relative to combination of RC529 and Muramyl dipeptide; type: functional
[12] = Induction of mouse BMDC cell maturation assessed as fold increase in CD86 positive cells incubated for 18 hrs by staining based flow cytometric analysis relative to combination of RC529 and Muramyl dipeptide; type: functional
[13] = Induction of mouse BMDC cell maturation assessed as fold increase in CD80 and CD86 positive cells incubated for 18 hrs by staining based flow cytometric analysis relative to combination of RC529 and Muramyl dipeptide; type: functional
[14] = Induction of mouse BMDC cell maturation assessed as change in CD80 positive cells incubated for 18 hrs by staining based flow cytometric analysis relative to control; type: functional
[15] = Induction of mouse BMDC cell maturation assessed as change in CD86 positive cells incubated for 18 hrs by staining based flow cytometric analysis relative to control; type: functional
[16] = organism: Mus musculus; assay: Activation of adaptive immune response in ovalbumin immunized mouse model assessed as increase in IgG titers incubated for 1 hrs and measured on 28 to 42 days; type: functional, organism-based
[17] = organism: Mus musculus; assay: Activation of adaptive immune response in ovalbumin immunized mouse model assessed as fold increase in IgG titers incubated for 1 hrs and measured on day 42 relative to combination of RC529 and Muramyl dipeptide; type: functional
[18] = organism: Mus musculus; assay: Activation of adaptive immune response in ovalbumin immunized mouse model assessed as increase in IgG1 titers incubated for 1 hrs and measured on day 42; type: functional, organism-based
[19] = organism: Mus musculus; assay: Activation of adaptive immune response in ovalbumin immunized mouse model assessed as increase in IgG2a titers incubated for 1 hrs and measured on day 42; type: functional, organism-based
[20] = organism: Mus musculus; assay: Activation of adaptive immune response in ovalbumin immunized mouse model assessed as increase in IgG2b titers incubated for 1 hrs and measured on day 42; type: functional, organism-based
[21] = system: T-cell; assay: Immunostimulatory activity in mouse spleen T-lymphocytes assessed as fold increase in proportion of TNF-alpha and IFN-gamma double-positive secreting CD8+ cells and measured on day 42 by staining based flow cytometric analysis relative to combination of RC529 and muramyl dipeptide; type: functional; conditions: time 42 day
[22] = system: T-cell; assay: Immunostimulatory activity in mouse spleen T-lymphocytes assessed as fold increase in proportion of TNF-alpha and IFN-gamma double-positive secreting CD4+ cells and measured on day 42 by staining based flow cytometric analysis RC529; type: functional; conditions: time 42 day
[23] = system: T-cell; assay: Immunostimulatory activity in mouse spleen T-lymphocytes assessed as fold increase in proportion of TNF-alpha and IFN-gamma double-positive secreting CD4+ cells and measured on day 42 by staining based flow cytometric analysis relative to muramyl dipeptide; type: functional; conditions: time 42 day
[24] = Immunostimulatory activity in mouse spleen T-lymphocytes assessed as fold increase in proportion of TNF-alpha positive secreting CD4+ cells and measured on day 42 by staining based flow cytometric analysis relative to RC529 and muramyl dipeptide combination; type: functional, T-cell
[25] = system: T-cell; assay: Immunostimulatory activity in mouse spleen T-lymphocytes assessed as fold increase in proportion of IFN-gamma positive secreting CD4+ cells and measured on day 42 by staining based flow cytometric analysis relative to RC529 and muramyl dipeptide combination; type: functional; conditions: time 42 day
[26] = Immunostimulatory activity in female BALB/c mouse spleen T-lymphocytes assessed as fold increase in proportion of Tcm in CD8+ cells and measured on day 42 by staining based flow cytometric analysis relative to combination of RC529 and Muramyl dipeptide; type: functional, T-cell; conditions: time 42 day
[27] = Immunostimulatory activity in female BALB/c mouse spleen T-lymphocytes assessed as fold increase in proportion of Tcm in CD4+ cells and measured on day 42 by staining based flow cytometric analysis relative to combination of RC529 and Muramyl dipeptide; type: functional, T-cell; conditions: time 42 day
[28] = Toxicity in immunized BALB/c mouse assessed as vascular congestion in heart measured on day 42 by H and E staining based analysis; type: tissue-based; conditions: in vivo, 1008 h, time 42 day
[29] = Toxicity in immunized BALB/c mouse assessed as vascular congestion in liver measured on day 42 by H and E staining based analysis; conditions: in vivo, 1008 h, time 42 day
[30] = Toxicity in immunized BALB/c mouse assessed as vascular congestion in spleen measured on day 42 by H and E staining based analysis; conditions: in vivo, 1008 h, time 42 day
[31] = Toxicity in immunized BALB/c mouse assessed as vascular congestion in lungs measured on day 42 by H and E staining based analysis; conditions: in vivo, 1008 h, time 42 day
[32] = Toxicity in immunized BALB/c mouse assessed as vascular congestion in kidneys measured on day 42 by H and E staining based analysis; conditions: in vivo, 1008 h, time 42 day
[33] = Toxicity in immunized BALB/c mouse assessed as vascular congestion in brain measured on day 42 by H and E staining based analysis; type: tissue-based; conditions: in vivo, 1008 h, time 42 day
[34] = Toxicity in immunized BALB/c mouse assessed as inflammatory cell infiltration in heart measured on day 42 by H and E staining based analysis; type: tissue-based; conditions: 1008 h, time 42 day
[35] = Toxicity in immunized BALB/c mouse assessed as inflammatory cell infiltration in liver measured on day 42 by H and E staining based analysis; conditions: 1008 h, time 42 day
[36] = Toxicity in immunized BALB/c mouse assessed as inflammatory cell infiltration in spleen measured on day 42 by H and E staining based analysis; conditions: 1008 h, time 42 day
[37] = Toxicity in immunized BALB/c mouse assessed as inflammatory cell infiltration in lungs measured on day 42 by H and E staining based analysis; conditions: 1008 h, time 42 day
[38] = Toxicity in immunized BALB/c mouse assessed as inflammatory cell infiltration in kidneys measured on day 42 by H and E staining based analysis; conditions: 1008 h, time 42 day
[39] = Toxicity in immunized BALB/c mouse assessed as inflammatory cell infiltration in brain measured on day 42 by H and E staining based analysis; type: tissue-based; conditions: 1008 h, time 42 day
[40] = Toxicity in immunized BALB/c mouse assessed as change in ALT level measured on day 42 […]; conditions: in vivo, 1008 h, time 42 day
[41] = Toxicity in immunized BALB/c mouse assessed as change in AST level measured on day 42 […]; conditions: in vivo, 1008 h, time 42 day

For CCCCCCCCCCCCCC(=O)O[C@H](CCCCCCCCCCC)CC(=O)NCCO[C@@H]1O[C@H](CNC(=O)CCc2cn(CCO[C@@H]3O[C@H](CO)[C@@H](O)[C@H](O[C@H](C)C(=O)N[C@H](C)C(=O)N[C@H](CCC(=O)O)C(N)=O)[C@H]3NC(C)=O)nn2)[C@@H](OP(=O)(O)O)[C@H](OC(=O)C[C@@H](CCCCCCCCCCC)OC(=O)CCCCCCCCCCCCC)[C@H]1NC(=O)C[C@@H](CCCCCCCCCCC)OC(=O)CCCCCCCCCCCCC, the “fold change (FC)” value [1] was 6.8, the Activity [2] was 98% and the Activity [3] was 58%. The Activity [4] was 99%, the Activity [5] was “Non-toxic” and the “fold change (FC)” value [6] was 2.2. The “fold change (FC)” value [7] was 1.4, the Activity [8] was 40.4% and the Activity [9] was 29.9%. For the same molecule, the “fold change (FC)” value [10] was 2.1, the “fold change (FC)” value [11] was 1.3 and the “fold change (FC)” value [12] was 1.5. The “fold change (FC)” value [13] was 1.7, the Activity [14] was 31.5% and the Activity [15] was 22.4%. For the same molecule, the Activity [16] was “Active”, the “fold change (FC)” value [17] was 2 and the Activity [18] was “Active”. For the same molecule, the Activity [19] was “Active”, the Activity [20] was “Active” and the “fold change (FC)” value [21] was 3.3. The “fold change (FC)” value [22] was 1.6, the “fold change (FC)” value [23] was 1.5 and the “fold change (FC)” value [24] was 1.3. For the same molecule, the “fold change (FC)” value [25] was 1.3, the “fold change (FC)” value [26] was 2.7 and the “fold change (FC)” value [27] was 1.2. For the same molecule, the Activity [28] was “Non-toxic”, the Activity [29] was “Non-toxic” and the Activity [30] was “Non-toxic”. The Activity [31] was “Non-toxic”, the Activity [32] was “Non-toxic” and the Activity [33] was “Non-toxic”. For the same molecule, the Activity [34] was “Non-toxic”, the Activity [35] was “Non-toxic” and the Activity [36] was “Non-toxic”. The Activity [37] was “Non-toxic”, the Activity [38] was “Non-toxic” and the Activity [39] was “Non-toxic”. For the same molecule, the Activity [40] was “Non-toxic” and the Activity [41] was “Non-toxic”.
